From ChEMBL document CHEMBL1201862, “PubChem BioAssay data set” (2004)
The source made the active and inactive calls.

Experiments:
BJ [1] = experiment: cytotoxicity toward BJ-TERT fibroblasts, dose response, cell-based, RAS-independent, luminescence (AID 1933); type: functional; conditions: Homo sapiens
BJ [2] = experiment: cells; type: functional, cell-based; conditions: Homo sapiens
BJ [3] = experiment: cytotoxicity toward BJ-TERT-LT-ST fibroblasts, dose response, cell-based, RAS-independent, luminescence (AID 1935); type: functional; conditions: Homo sapiens;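 also: BJ fibroblasts immortalized with TERT plus LT and ST oncogenes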
[4] = cytotoxicity toward DRD oncogenic fibroblasts, dose response, cell-based, non-viral oncogenic, luminescence (AID 1934); type: functional; conditions: Homo sapiens
Insulin-degrading enzyme [5] = biological target: T1, Insulin-degrading enzyme (Homo sapiens, UniProt P14735); experiment: activators of recombinant IDE enzyme, dose response, counter-screen for IDE activator project, biochemical, fluorescence polarization (AID 588681)
Insulin-degrading enzyme [6] = biological target: T1, Insulin-degrading enzyme; experiment: activators of endogenous IDE in HEK cells, dose response, cell-based, fluorescence polarization (AID 588439); type: functional
HEK293 [7] = experiment: HEK cell cytotoxicity by LDH release, dose response, cytotoxicity control for IDE activator project, fluorescence, HEK cells (AID 588440); type: functional, cell-based; conditions: Homo sapiens;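 also: cytotoxicity by LDH release measuring loss of membrane integrity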
HEK293 [8] = experiment: optical interference in Abeta FP readout, dose response, artefact control for IDE activator project, biochemical, fluorescence polarization (AID 588442); type: functional, cell-based; conditions: Homo sapiens
[9] = AlphaScreen signal interference compounds, dose response, artefact control for ARNT-TACC3 interaction inhibitor project, biochemical, luminescence, cherry-pick (AID 651705); type: functional;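 also: AlphaScreen bead proximity signal that flags compounds interfering with the detection technology; potency reflects signal decrease which marks the compound as an assay artifact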
[10] = biological target: T2, Protein disulfide-isomerase (Homo sapiens, UniProt P07237); experiment: PDI inhibitors, insulin aggregation turbidity, dose response, biochemical, absorbance, cherry-picked samples (AID 602350); type: functional
[11] = biological target: T2, Protein disulfide-isomerase; experiment: PDI inhibitors, insulin turbidity readout, dose response, biochemical, absorbance, cherry-picked samples, set 2 (AID 624274); type: functional
[12] = biological target: T3, Sentrin-specific protease 8 (Homo sapiens, UniProt Q96LD8); experiment: SENP8 protease inhibitors, SAR follow-up, biochemical, luminescence (AID 504501); type: functional
T3 sequence (Q96LD8 whole entry): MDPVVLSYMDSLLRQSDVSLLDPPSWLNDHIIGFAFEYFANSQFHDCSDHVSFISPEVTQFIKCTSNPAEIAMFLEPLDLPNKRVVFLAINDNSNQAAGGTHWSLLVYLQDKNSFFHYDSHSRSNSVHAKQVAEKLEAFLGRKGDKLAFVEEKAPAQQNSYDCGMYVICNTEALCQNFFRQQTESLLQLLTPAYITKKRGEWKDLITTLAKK

Caspase-3 [13] = biological target: T4, Caspase-3 (Homo sapiens, UniProt P42574); experiment: caspase-3 inhibitors as off-family protease, SAR follow-up, selectivity assay for SENP protease inhibitor project, biochemical, luminescence, set 2 (AID 588599); type: functional
T4 sequence (P42574 whole entry): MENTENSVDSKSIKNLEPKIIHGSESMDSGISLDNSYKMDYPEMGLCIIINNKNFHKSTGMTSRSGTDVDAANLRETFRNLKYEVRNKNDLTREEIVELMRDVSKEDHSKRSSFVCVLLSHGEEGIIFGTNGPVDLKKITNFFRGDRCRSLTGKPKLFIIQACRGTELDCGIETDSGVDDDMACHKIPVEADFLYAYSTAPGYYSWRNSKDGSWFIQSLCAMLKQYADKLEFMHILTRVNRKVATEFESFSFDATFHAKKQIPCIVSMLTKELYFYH

[14] = biological target: T3, Sentrin-specific protease 8; experiment: SENP8 protease inhibitors, SAR follow-up, biochemical, luminescence, set 2 (AID 588601); type: functional
Caspase-3 [15] = biological target: T4, Caspase-3; experiment: SAR Analysis of small molecule inhibitors of Sentrin-specific proteases (SENPs) using a Caspase-3 Selectivity assay. [Related pubchem assays (depositor defined):AID2540, AID2599, AID434973, AID489001]; type: functional
[16] = biological target: T5, Sentrin-specific protease 7 (Homo sapiens, UniProt Q9BQF6); experiment: SENP7 protease inhibitors, SAR follow-up, biochemical, luminescence, set 2 (AID 588600); type: functional
T5 sequence (Q9BQF6 whole entry): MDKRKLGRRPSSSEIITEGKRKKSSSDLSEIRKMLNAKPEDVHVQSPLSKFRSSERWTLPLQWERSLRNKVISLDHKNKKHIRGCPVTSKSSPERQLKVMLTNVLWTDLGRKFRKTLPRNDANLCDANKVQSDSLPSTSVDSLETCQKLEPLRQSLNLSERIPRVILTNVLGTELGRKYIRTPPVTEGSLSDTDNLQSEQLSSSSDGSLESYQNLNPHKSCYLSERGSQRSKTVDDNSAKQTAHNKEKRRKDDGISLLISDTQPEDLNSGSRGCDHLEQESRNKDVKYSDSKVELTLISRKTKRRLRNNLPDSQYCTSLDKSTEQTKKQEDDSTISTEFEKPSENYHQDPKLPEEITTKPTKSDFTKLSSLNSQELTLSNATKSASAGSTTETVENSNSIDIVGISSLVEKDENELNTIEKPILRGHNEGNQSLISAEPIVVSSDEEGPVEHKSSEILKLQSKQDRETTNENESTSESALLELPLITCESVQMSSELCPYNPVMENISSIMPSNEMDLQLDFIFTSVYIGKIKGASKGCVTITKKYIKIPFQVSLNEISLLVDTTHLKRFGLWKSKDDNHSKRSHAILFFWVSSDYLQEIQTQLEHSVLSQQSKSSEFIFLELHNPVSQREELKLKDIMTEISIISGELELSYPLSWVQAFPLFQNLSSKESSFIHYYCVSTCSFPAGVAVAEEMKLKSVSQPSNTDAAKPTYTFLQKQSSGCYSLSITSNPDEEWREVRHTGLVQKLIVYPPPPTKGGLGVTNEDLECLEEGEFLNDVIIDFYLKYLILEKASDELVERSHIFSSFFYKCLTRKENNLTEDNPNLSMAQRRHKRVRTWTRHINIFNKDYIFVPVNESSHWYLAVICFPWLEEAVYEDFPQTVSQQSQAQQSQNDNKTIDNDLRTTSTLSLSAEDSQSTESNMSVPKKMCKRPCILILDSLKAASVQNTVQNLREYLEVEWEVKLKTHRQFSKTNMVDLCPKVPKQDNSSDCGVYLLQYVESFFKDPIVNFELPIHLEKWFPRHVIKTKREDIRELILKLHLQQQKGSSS

[17] = biological target: T6, Sentrin-specific protease 6 (Homo sapiens, UniProt Q9GZR1); experiment: SAR Analysis of small molecule inhibitors of Sentrin-specific protease 6 (SENP6) using a Luminescent assay. [Related pubchem assays (depositor defined):AID2582, AID2599]; type: functional
T6 sequence (Q9GZR1 whole entry): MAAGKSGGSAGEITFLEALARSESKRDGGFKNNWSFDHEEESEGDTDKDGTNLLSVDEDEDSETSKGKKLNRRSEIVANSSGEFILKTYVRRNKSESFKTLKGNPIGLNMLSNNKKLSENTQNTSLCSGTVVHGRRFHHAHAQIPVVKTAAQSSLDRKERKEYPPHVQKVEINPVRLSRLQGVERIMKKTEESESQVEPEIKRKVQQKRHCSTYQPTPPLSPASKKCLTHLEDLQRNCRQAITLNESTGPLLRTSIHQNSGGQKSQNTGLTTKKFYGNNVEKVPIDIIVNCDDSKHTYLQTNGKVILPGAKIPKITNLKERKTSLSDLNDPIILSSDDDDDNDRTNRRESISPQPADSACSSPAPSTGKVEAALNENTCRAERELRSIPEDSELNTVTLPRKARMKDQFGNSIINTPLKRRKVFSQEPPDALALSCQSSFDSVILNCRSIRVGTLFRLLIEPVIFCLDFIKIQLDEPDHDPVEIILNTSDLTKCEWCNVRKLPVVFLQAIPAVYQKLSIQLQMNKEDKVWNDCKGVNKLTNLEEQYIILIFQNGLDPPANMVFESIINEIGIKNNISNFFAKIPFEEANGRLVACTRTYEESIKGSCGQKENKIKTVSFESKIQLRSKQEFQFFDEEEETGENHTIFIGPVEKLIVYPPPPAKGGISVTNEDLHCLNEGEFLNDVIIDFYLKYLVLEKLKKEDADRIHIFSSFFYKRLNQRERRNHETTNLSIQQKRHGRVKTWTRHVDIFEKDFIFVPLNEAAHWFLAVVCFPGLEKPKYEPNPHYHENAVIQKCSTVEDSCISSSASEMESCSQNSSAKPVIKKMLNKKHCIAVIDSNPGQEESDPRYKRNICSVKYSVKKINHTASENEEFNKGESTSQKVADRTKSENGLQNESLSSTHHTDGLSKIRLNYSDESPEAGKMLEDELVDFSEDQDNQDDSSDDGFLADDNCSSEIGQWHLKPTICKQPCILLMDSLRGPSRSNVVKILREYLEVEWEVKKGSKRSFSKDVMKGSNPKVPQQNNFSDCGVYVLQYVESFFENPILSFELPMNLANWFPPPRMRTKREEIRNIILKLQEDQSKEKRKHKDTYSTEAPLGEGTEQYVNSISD

[18] = biological target: T6, Sentrin-specific protease 6; experiment: SENP6 protease inhibitors, SAR follow-up, biochemical, luminescence, set 2 (AID 588598); type: functional
[19] = biological target: T5, Sentrin-specific protease 7; experiment: SENP7 protease inhibitors, SAR follow-up, biochemical, luminescence (AID 504497); type: functional
[20] = inhibitors of intracellular T. cruzi replication, confirmation, NIH3T3 host cells, beta-gal luminescence (AID 2044); type: functional, cell-based;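 also: intracellular parasites grown in NIH/3T3 mouse fibroblasts as host cells; luminescent beta-galactosidase reporter signal from transgenic T. cruzi replicating inside host cells; inhibitors lower the luminescence signal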
[21] = cytotoxicity toward NIH3T3 fibroblasts, dose response, counter-screen, cell-based, ATP luminescence, mouse fibroblasts (AID 2010); type: functional;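 also: cells exposed to compound for about 90 hours before reading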
[22] = biological target: Botulinum neurotoxin type A (Clostridium botulinum (strain Hall / ATCC 3502 / NCTC 13319 / Type A), UniProt P0DPI1); experiment: High-throughput multiplex microsphere dose response for inhibitors of toxin protease, specifically Botulinum neurotoxin light chain A protease, compounds from Cherry Pick 02.; type: functional; conditions: read-out: EC50_MICROM
Lethal factor = Lethal factor (Bacillus anthracis, UniProt P15917); experiment: High-throughput multiplex microsphere dose response for inhibitors of toxin protease, specifically Lethal Factor protease, compounds from Cherry Pick 02.; type: functional; conditions: read-out: EC50_MICROM
[23] = biological target: Botulinum neurotoxin type F (Clostridium botulinum, UniProt P30996); experiment: High-throughput multiplex microsphere dose response for inhibitors of toxin protease, specifically Botulinum neurotoxin light chain F protease, compounds from Cherry Pick 02.; type: functional; conditions: read-out: EC50_MICROM
Aurora kinase A = Aurora kinase A (Homo sapiens, UniProt O14965); type: functional;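 also: value from the Navigating the Kinome kinase panel profiling, panel entry STK6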
[24] = biological target: Serine/threonine-protein kinase Chk1 (Homo sapiens, UniProt O14757); type: functional;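 also: measured as one member of a kinome-wide kinase profiling panel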
[25] = biological target: Serine/threonine-protein kinase pim-1 (Homo sapiens, UniProt P11309); type: functional
[26] = biological target: Cell division cycle 7-related protein kinase (Homo sapiens, UniProt O00311); type: functional;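 also: value obtained from a kinome-wide kinase panel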
[27] = biological target: Homeodomain-interacting protein kinase 2 (Homo sapiens, UniProt Q9H2X6); type: functional;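 also: measured within a kinome-wide kinase profiling panel, HIPK2 being one panel member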
[28] = biological target: MAP kinase-interacting serine/threonine-protein kinase 2 (Homo sapiens, UniProt Q9HBH9); type: functional
[29] = biological target: Interleukin-1 receptor-associated kinase 4 (Homo sapiens, UniProt Q9NWZ3); type: functional
[30] = biological target: Glycogen synthase kinase-3 beta (Homo sapiens, UniProt P49841); type: functional;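 also: value comes from a broad kinome profiling panel, with GSK3B as the panel member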
[31] = biological target: cAMP-dependent protein kinase catalytic subunit alpha (Homo sapiens, UniProt P17612); type: functional
[32] = biological target: Dual specificity protein kinase CLK4 (Homo sapiens, UniProt Q9HAZ1); type: functional
[33] = biological target: Mitogen-activated protein kinase kinase kinase kinase 4 (Homo sapiens, UniProt O95819); type: functional
[34] = biological target: DNA dC->dU-editing enzyme APOBEC-3G (Homo sapiens, UniProt Q9HC16); experiment: APOBEC3G deaminase inhibitors, SAR follow-up, biochemical, fluorescence, single-stranded DNA substrate (AID 602136); type: functional; conditions: read-out: IC50_Mean
[35] = biological target: DNA dC->dU-editing enzyme APOBEC-3A (Homo sapiens, UniProt P31941); experiment: SAR analysis of small molecule inhibitors of APOBEC3A DNA Deaminase via a fluorescence-based single-stranded DNA deaminase assay.; type: functional; conditions: read-out: IC50_Mean
DNA dC->dU-editing enzyme APOBEC-3A, sequence (P31941 whole entry): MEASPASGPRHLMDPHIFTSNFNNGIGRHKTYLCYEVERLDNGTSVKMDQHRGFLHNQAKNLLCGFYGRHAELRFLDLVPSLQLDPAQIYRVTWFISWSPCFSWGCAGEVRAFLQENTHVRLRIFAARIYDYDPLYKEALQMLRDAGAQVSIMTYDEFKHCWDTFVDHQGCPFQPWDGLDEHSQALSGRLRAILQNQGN

T2 sequence (P07237 whole entry): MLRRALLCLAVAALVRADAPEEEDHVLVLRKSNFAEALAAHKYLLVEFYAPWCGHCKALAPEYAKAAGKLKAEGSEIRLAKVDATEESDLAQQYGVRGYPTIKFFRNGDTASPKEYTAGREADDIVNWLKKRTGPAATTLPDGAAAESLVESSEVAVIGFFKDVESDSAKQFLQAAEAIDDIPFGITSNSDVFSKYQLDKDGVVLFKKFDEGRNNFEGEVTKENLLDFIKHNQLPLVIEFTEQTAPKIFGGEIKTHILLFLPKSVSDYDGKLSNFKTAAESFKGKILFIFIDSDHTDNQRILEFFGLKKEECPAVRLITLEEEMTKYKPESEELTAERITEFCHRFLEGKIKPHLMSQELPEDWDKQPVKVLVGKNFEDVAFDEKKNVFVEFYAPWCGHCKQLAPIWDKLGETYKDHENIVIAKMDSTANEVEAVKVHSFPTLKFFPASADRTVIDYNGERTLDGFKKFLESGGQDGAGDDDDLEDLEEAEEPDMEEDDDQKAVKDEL
T1 sequence (P14735 whole entry): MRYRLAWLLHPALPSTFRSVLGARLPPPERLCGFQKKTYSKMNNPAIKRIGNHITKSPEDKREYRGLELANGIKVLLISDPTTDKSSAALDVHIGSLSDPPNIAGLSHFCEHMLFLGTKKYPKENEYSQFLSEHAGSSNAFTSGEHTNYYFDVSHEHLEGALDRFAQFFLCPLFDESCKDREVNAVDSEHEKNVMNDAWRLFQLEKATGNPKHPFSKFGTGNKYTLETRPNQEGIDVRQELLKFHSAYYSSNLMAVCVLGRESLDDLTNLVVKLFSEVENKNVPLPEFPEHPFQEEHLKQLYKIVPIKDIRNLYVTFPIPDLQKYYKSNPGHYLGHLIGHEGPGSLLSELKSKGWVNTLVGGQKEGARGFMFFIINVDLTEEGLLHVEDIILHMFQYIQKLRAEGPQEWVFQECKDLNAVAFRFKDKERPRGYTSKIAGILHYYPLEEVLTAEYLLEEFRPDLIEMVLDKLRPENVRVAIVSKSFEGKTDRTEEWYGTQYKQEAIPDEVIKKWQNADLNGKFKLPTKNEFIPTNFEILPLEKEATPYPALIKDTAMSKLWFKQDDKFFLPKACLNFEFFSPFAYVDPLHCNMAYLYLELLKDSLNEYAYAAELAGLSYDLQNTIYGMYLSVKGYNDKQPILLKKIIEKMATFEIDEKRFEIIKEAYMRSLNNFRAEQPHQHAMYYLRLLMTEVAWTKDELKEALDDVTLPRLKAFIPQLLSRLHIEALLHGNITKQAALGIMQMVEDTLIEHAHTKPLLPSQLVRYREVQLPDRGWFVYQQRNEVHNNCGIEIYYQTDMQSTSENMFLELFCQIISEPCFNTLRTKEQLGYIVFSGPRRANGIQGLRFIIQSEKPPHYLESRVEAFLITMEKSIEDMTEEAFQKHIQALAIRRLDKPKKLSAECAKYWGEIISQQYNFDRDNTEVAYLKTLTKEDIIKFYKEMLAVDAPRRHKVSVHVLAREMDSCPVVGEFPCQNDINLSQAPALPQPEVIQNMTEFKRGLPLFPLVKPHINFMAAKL
Botulinum neurotoxin type A, sequence (P0DPI1 2-448 limits assumed): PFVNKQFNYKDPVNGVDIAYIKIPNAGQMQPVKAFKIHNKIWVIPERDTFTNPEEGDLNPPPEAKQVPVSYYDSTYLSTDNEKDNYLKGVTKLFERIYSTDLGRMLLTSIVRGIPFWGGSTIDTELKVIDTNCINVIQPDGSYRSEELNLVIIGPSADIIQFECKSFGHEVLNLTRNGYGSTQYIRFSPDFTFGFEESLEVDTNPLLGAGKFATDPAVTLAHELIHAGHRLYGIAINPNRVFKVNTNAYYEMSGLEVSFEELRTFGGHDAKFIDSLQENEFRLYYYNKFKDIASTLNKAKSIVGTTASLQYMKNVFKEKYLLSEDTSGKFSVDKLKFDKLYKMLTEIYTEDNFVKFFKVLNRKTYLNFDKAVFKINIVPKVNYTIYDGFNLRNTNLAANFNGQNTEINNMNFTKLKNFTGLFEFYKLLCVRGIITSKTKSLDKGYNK
DNA dC->dU-editing enzyme APOBEC-3G, sequence (Q9HC16 whole entry): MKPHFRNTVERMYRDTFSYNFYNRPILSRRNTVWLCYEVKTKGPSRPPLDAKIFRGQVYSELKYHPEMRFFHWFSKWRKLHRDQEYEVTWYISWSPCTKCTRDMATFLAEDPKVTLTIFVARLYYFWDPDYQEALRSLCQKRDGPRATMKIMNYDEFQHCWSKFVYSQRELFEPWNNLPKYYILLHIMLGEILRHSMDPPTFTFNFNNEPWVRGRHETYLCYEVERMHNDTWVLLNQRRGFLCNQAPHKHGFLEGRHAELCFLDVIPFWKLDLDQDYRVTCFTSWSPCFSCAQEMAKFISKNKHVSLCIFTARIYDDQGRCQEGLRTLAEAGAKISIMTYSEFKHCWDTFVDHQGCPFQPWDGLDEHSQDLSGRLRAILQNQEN
Lethal factor, sequence (P15917 whole entry): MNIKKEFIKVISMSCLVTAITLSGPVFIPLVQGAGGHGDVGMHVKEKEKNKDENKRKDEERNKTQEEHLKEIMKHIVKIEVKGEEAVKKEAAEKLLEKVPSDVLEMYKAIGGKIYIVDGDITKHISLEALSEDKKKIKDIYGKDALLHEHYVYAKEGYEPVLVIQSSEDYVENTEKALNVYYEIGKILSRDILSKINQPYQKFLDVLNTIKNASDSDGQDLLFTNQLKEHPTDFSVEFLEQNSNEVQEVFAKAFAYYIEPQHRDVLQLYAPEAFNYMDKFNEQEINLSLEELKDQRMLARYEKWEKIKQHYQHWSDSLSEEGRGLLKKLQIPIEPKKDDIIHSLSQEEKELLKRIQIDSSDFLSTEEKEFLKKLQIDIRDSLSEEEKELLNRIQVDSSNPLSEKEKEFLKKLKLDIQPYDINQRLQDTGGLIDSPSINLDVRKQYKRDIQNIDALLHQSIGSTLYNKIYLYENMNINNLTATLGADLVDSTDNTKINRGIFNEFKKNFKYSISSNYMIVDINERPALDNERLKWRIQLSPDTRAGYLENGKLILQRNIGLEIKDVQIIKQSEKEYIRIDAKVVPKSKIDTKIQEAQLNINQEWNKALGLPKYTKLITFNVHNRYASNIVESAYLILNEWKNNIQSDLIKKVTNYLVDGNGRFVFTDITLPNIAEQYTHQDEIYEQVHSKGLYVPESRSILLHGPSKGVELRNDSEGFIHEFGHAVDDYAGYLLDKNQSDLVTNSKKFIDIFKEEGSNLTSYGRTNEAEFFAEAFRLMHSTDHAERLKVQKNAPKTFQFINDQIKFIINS
Mitogen-activated protein kinase kinase kinase kinase 4, sequence (O95819 whole entry): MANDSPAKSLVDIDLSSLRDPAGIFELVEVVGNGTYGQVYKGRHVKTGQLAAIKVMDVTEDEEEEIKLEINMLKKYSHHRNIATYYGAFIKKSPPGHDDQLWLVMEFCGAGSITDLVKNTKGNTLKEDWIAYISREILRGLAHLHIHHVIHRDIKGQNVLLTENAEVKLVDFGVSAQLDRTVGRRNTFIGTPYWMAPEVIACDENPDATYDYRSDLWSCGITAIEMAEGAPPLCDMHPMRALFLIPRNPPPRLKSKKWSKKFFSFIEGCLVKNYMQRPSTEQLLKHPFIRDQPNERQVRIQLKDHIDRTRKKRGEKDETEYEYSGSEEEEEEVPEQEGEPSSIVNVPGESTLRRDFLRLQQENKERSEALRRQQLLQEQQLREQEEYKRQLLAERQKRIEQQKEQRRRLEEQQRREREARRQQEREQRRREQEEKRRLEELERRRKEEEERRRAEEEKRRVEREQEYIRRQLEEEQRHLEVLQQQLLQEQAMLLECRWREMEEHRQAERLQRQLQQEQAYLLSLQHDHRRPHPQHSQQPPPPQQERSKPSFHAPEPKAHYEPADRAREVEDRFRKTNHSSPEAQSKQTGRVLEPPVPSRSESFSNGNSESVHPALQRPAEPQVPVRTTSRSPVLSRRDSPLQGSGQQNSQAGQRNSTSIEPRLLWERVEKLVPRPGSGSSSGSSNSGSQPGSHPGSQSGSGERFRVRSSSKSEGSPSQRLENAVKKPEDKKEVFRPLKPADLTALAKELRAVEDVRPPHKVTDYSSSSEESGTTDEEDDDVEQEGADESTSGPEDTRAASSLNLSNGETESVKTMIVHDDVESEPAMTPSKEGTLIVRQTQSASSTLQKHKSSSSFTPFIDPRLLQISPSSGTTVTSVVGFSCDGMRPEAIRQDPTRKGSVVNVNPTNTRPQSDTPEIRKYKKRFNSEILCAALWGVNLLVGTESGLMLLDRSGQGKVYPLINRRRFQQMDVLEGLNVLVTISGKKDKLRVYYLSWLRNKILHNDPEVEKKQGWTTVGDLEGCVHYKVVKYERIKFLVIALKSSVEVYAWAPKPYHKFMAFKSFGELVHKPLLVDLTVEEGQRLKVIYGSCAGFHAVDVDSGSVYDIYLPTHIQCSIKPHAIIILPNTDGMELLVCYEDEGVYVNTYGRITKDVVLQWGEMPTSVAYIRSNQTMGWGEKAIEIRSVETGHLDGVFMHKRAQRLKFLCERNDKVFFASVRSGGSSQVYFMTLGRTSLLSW
Aurora kinase A, sequence (O14965 whole entry): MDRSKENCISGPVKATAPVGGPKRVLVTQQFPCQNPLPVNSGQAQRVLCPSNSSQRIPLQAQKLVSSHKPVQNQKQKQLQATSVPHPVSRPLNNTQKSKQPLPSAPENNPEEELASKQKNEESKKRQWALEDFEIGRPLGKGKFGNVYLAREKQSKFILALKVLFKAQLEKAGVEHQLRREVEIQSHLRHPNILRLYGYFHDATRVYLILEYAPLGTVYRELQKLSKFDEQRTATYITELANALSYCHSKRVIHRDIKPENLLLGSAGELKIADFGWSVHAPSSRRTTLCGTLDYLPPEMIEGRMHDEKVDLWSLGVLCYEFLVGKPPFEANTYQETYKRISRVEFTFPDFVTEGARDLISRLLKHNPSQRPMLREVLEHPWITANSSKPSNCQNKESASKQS

CCN(CC)c1ccc(/C=N/N=C(N)N)c(O)c1
EC50 (BJ [1]): 1.47 µM (active) | EC50 (BJ [2]): 2.16 µM (active) | EC50 (BJ [3]): 1.51 µM (inconclusive) | EC50 [4]: 1.19 µM (active) | EC50 (Insulin-degrading enzyme [5]): > 54.7 µM (inactive) | EC50 (Insulin-degrading enzyme [6]): > 54.7 µM (inactive) | IC50 (HEK293 [7]): > 89.2 µM (inactive) | EC50 (HEK293 [8]): > 54.7 µM (inactive) | AC50 [9]: 115 µM (active)

O=C1NC(Cc2ccc(O)cc2)c2nc3ccccc3c(=O)n2-c2ncccc21 (configuration not stated)
AC50 [10]: < 0.009 µM (active) | AC50 [11]: 0.009 µM (active)

CCCCc1ccc2nc(NC(=O)c3cc(C)cs3)sc2c1
IC50 [12]: > 99 µM (inactive) | IC50 (Caspase-3 [13]): 68.4 µM (active) | IC50 [14]: 8.25 µM (active) | IC50 (Caspase-3 [15]): 51 µM (active) | IC50 [16]: 29.4 µM (active) | IC50 [17]: > 99 µM (inactive) | IC50 [18]: 8.58 µM (active) | IC50 [19]: 6.4 µM (active)

Cc1cc2ccccc2n1CCNC(=O)COc1ccccc1
EC50 [20]: 1.16 µM (active) | EC50 [21]: > 30 µM (not active) | EC50 [22]: 4.9 µM (active) | EC50 (Lethal factor): 1.4 µM (active) | EC50 [23]: > 20 µM (inactive)

CN(C)c1ncnc2[nH]ncc12
Ki (Aurora kinase A): 12.6 µM (active) | Ki [24]: 5.01 µM (active)

Nc1n[nH]c2ccc(-c3nnn(Cc4ccccc4)c3C3CC3)cc12
Ki [25]: 3.98 µM (active) | Ki [26]: 0.0316 µM (active) | Ki [27]: 2 µM (active) | Ki [28]: 0.398 µM (active) | Ki [29]: > 10 µM (inactive) | Ki [30]: 0.00794 µM (active) | Ki [31]: 0.631 µM (active) | Ki [32]: 0.0251 µM (active) | Ki [33]: 1 µM (active)

Fc1ccc(Nc2nc(Nc3ccc(Cl)c(Cl)c3)nc(N3CCOCC3)n2)cc1
IC50 [34]: > 99 µM (inactive) | IC50 [35]: > 99 µM (inactive)
